Measurements taken from ChEMBL document CHEMBL1201862, “PubChem BioAssay data set” (2004).
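Where inhibition never reached the appropriate level, the endpoint shown equals the highest concentration tested. Otherwise, values were interpolated linearly from a five-concentration, 48-hour dose response in 96-well plates. The concentration for 50% growth inhibition is given as GI50.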 The source made the active and inactive calls. No stated cut-off is given here; in the data, active = GI50 up to about 1.1 µM and inactive = higher.

Columns and labels:
Experiment in all cases: NCI anticancer screen, dose series, 48 h
[1] = test system: A549
[2] = test system: COLO 205
[3] = test system: HCT-116
[4] = test system: HL-60
[5] = test system: HOP-62
[6] = test system: K562
[7] = test system: NCI-H23
[8] = test system: OVCAR-8
[9] = test system: SF-539
[10] = test system: SK-OV-3
[11] = test system: SNB-19
[12] = test system: SNB-75
[13] = test system: SR
[14] = test system: SW-620
[15] = test system: UACC-257
[16] = test system: UACC-62
[17] = test system: MDA-N
[18] = test system: NCI/ADR-RES
[19] = test system: PC-3
[20] = test system: T47D

Structure (SMILES)	GI50 [1]	GI50 [2]	GI50 [3]	GI50 [4]	GI50 [5]	GI50 [6]	GI50 [7]	GI50 [8]	GI50 [9]	GI50 [10]	GI50 [11]	GI50 [12]	GI50 [13]	GI50 [14]	GI50 [15]	GI50 [16]	GI50 [17]	GI50 [18]	GI50 [19]	GI50 [20]
COc1ccc(N2C(=O)C3c4[nH]c5ccc(OC)cc5c4C4CCC(C(C)(C)C)CC4C3C2=O)cc1 (configuration not stated)	26.7 µM (inactive)	12.3 µM (inactive)	10.5 µM (inactive)	43 µM (inactive)	16 µM (inactive)	23.1 µM (inactive)	19.1 µM (inactive)	25 µM (inactive)	12.8 µM (inactive)	15.2 µM (inactive)	46.3 µM (inactive)	12.3 µM (inactive)	17.4 µM (inactive)	93.5 µM (inactive)	55.2 µM (inactive)	27.2 µM (inactive)				
O=c1c2cc([N+](=O)[O-])ccc2n2n1Cc1ccccc1CC2	> 100 µM (inactive)	> 100 µM (inactive)	> 100 µM (inactive)	> 100 µM (inactive)	> 100 µM (inactive)	> 100 µM (inactive)	> 100 µM (inactive)	> 100 µM (inactive)	> 100 µM (inactive)	> 100 µM (inactive)	> 100 µM (inactive)		> 100 µM (inactive)	> 100 µM (inactive)	> 100 µM (inactive)	> 100 µM (inactive)	> 100 µM (inactive)	> 100 µM (inactive)	> 100 µM (inactive)	
CC1=C(C(=O)NNC(=O)Cc2ccccc2)CC(C(=O)NNC(=O)Cc2ccccc2)=C(C)N1	> 100 µM (inactive)	> 100 µM (inactive)	> 100 µM (inactive)	25.5 µM (inactive)	> 100 µM (inactive)		> 100 µM (inactive)	> 100 µM (inactive)	> 100 µM (inactive)	> 100 µM (inactive)	> 100 µM (inactive)	> 100 µM (inactive)		> 100 µM (inactive)	> 100 µM (inactive)	35.4 µM (inactive)	> 100 µM (inactive)	> 100 µM (inactive)		54.8 µM (inactive)
CSc1cnn(CCC#N)c(=O)n1	> 100 µM (inactive)	> 100 µM (inactive)	> 100 µM (inactive)	33.2 µM (inactive)	> 100 µM (inactive)	33.1 µM (inactive)	> 100 µM (inactive)	> 100 µM (inactive)	> 100 µM (inactive)	> 100 µM (inactive)	> 100 µM (inactive)	84.9 µM (inactive)	40.9 µM (inactive)	74.6 µM (inactive)	62.5 µM (inactive)	> 100 µM (inactive)	> 100 µM (inactive)		> 100 µM (inactive)	> 100 µM (inactive)
CC(=O)/C(=C\Nc1c(C)n(C)n(C)c1=O)C(=O)c1ccccc1	> 50 µM (inactive)	> 50 µM (inactive)	> 50 µM (inactive)	> 50 µM (inactive)	> 50 µM (inactive)	> 50 µM (inactive)	> 50 µM (inactive)		> 50 µM (inactive)	> 50 µM (inactive)	> 50 µM (inactive)		> 50 µM (inactive)	> 50 µM (inactive)	> 50 µM (inactive)	> 50 µM (inactive)	> 50 µM (inactive)		> 50 µM (inactive)	> 50 µM (inactive)
C/C(=N/NC(N)=S)C(CN(C)C)C(C1=C(O)c2ccccc2OC1)c1ccccc1 (configuration not stated)	> 100 µM (inactive)	> 100 µM (inactive)	> 100 µM (inactive)	> 100 µM (inactive)	> 100 µM (inactive)	> 100 µM (inactive)	> 100 µM (inactive)	> 100 µM (inactive)	> 100 µM (inactive)	> 100 µM (inactive)	> 100 µM (inactive)	> 100 µM (inactive)	> 100 µM (inactive)	> 100 µM (inactive)	> 100 µM (inactive)	> 100 µM (inactive)				
COC(=O)/C(C#N)=C1\CCC(O)N1 (configuration not stated)	> 100 µM (inactive)	> 100 µM (inactive)	> 100 µM (inactive)	> 100 µM (inactive)	> 100 µM (inactive)	> 100 µM (inactive)	> 100 µM (inactive)	> 100 µM (inactive)	> 100 µM (inactive)	> 100 µM (inactive)	> 100 µM (inactive)	> 100 µM (inactive)	> 100 µM (inactive)	> 100 µM (inactive)	> 100 µM (inactive)	> 100 µM (inactive)				
CN(C)/C=N/S(=O)(=O)c1nn2c(C=O)c(-c3ccc(-c4ccccc4)cc3)nc2s1	11.5 µM (inactive)	2.56 µM (inactive)	1 µM (active)	0.141 µM (active)	8.61 µM (inactive)	0.316 µM (active)	1.78 µM (inactive)	5.28 µM (inactive)	2.54 µM (inactive)	15.1 µM (inactive)	11.9 µM (inactive)	4.12 µM (inactive)	0.49 µM (active)	0.724 µM (active)	2.97 µM (inactive)	2.34 µM (inactive)		8.57 µM (inactive)	2 µM (inactive)	1.95 µM (inactive)
CCOC(=O)CCC(NC(=O)OCc1ccccc1)C(=O)NC(CCC(=O)OCC)C(=O)NC(CCC(=O)OCC)C(=O)NNC(=O)OC(C)(C)C (configuration not stated)	> 100 µM (inactive)	> 100 µM (inactive)	> 100 µM (inactive)	> 100 µM (inactive)	> 100 µM (inactive)	> 100 µM (inactive)	> 100 µM (inactive)	> 100 µM (inactive)			> 100 µM (inactive)	> 100 µM (inactive)	> 100 µM (inactive)	> 100 µM (inactive)	> 100 µM (inactive)	> 100 µM (inactive)	> 100 µM (inactive)		> 100 µM (inactive)	
CN(C)C(=S)S [SODIUM DIMETHYLCARBAMODITHIOATE]	> 100 µM (inactive)	27.9 µM (inactive)	25.5 µM (inactive)	1.33 µM (inactive)		2.44 µM (inactive)	> 50.8 µM (inactive)	> 52.5 µM (inactive)	> 100 µM (inactive)	> 100 µM (inactive)	> 100 µM (inactive)	> 85.5 µM (inactive)		> 59.7 µM (inactive)	> 100 µM (inactive)	> 100 µM (inactive)		> 100 µM (inactive)	3.37 µM (inactive)	> 100 µM (inactive)
N#Cc1c(N)[nH]c2ccc(Sc3ccccc3)cc12	0.282 µM (active)	0.323 µM (active)	0.111 µM (active)	0.0333 µM (active)	0.456 µM (active)	< 0.0635 µM (active)	0.323 µM (active)	0.358 µM (active)	0.234 µM (active)	0.53 µM (active)	0.46 µM (active)	0.624 µM (active)		0.121 µM (active)	12.8 µM (inactive)	0.133 µM (active)		0.101 µM (active)	0.275 µM (active)	0.622 µM (active)
CCOC(=O)C1=C(N)N(c2ccccc2)/C(=C2\SC(=S)N(c3ccc(C)cc3)C2=O)S1	52.1 µM (inactive)	> 100 µM (inactive)	63.2 µM (inactive)	71.6 µM (inactive)	22.2 µM (inactive)	36.8 µM (inactive)	47.4 µM (inactive)	33.3 µM (inactive)	14.8 µM (inactive)	26.9 µM (inactive)	29.7 µM (inactive)	3.99 µM (inactive)	> 100 µM (inactive)	> 100 µM (inactive)	42.3 µM (inactive)	88.7 µM (inactive)	> 100 µM (inactive)	50.5 µM (inactive)	51.4 µM (inactive)	
Cc1c(C(=O)C/C(=N\O)C(=O)Nc2cc(Cl)c(Cl)cc2Cl)[n+]([O-])c2ccccc2[n+]1[O-]	25.6 µM (inactive)	2.92 µM (inactive)	4.85 µM (inactive)	16.1 µM (inactive)	23.3 µM (inactive)	25.9 µM (inactive)	20.9 µM (inactive)	8.91 µM (inactive)	14.3 µM (inactive)	43.7 µM (inactive)	36.1 µM (inactive)	33.2 µM (inactive)	24.2 µM (inactive)	2.9 µM (inactive)	7.85 µM (inactive)	4.57 µM (inactive)				
Cc1cc(OCC(=O)N/N=C/C(Br)=C/c2ccccc2)nc(SCC(=O)N/N=C/C(Br)=C/c2ccccc2)n1		39.1 µM (inactive)	> 100 µM (inactive)	> 100 µM (inactive)	51.5 µM (inactive)	> 100 µM (inactive)	> 100 µM (inactive)				> 100 µM (inactive)		> 100 µM (inactive)	> 100 µM (inactive)	> 100 µM (inactive)	> 100 µM (inactive)	49.4 µM (inactive)	53.6 µM (inactive)	54.1 µM (inactive)	
COc1ccc2c(c1)CCN1CCCc3ccc(OC)cc3C21 (configuration not stated)	75 µM (inactive)	44.4 µM (inactive)	31.3 µM (inactive)		67.9 µM (inactive)	36 µM (inactive)	68.5 µM (inactive)	> 100 µM (inactive)	50.4 µM (inactive)	77.4 µM (inactive)	> 100 µM (inactive)	16.4 µM (inactive)	41.5 µM (inactive)	76.7 µM (inactive)	73.8 µM (inactive)	57.3 µM (inactive)		42.9 µM (inactive)	28.5 µM (inactive)	50.6 µM (inactive)
C=CCN1C(=O)C(=O)N(CC=C)C(=O)C1=O	> 100 µM (inactive)	> 100 µM (inactive)	> 100 µM (inactive)	> 100 µM (inactive)	> 100 µM (inactive)	> 100 µM (inactive)	> 100 µM (inactive)	> 100 µM (inactive)	> 100 µM (inactive)	> 100 µM (inactive)	> 100 µM (inactive)	> 100 µM (inactive)	> 100 µM (inactive)	> 100 µM (inactive)	> 100 µM (inactive)	> 100 µM (inactive)				
